Assay results from patent US20060079453A1, “Hla binding peptides and their uses” (priority 2002, published 2006).
Read-outs that look alike come from different tables or passages of the source. No end group written: not given here.

Experiments:
Experiment in all cases: biochemical
Assay type in all cases: binding
HLA-DR DRB1*1501 (DR15) = HLA-DR DRB1*1501 (DR15) (Homo sapiens, UniProt P01903+P01911)
HLA-DR DRB4*0101 (DR53) = HLA-DR DRB4*0101 (DR53) (Homo sapiens, UniProt P01903+P13762, G164S)
HLA-DR DRB1*1302 (DR13) = HLA-DR DRB1*1302 (DR13) (Homo sapiens, UniProt P01903+P01911, A100E/A169T/K41T/L162R/M171V/P40S/Q125H/Q178H/Q39Y/Q99D/R42S/S66N/T262R/V115G/W38E/Y61H); details: read-out: DRBI *1302
HLA-DR DRB1*0101 (DR1) = HLA-DR DRB1*0101 (DR1) (Homo sapiens, UniProt P01903+P01911, A100R/D57E/F55L/F60I/F76Y/I96L/L162R/M171V/P40L/Q125E/R42F/V115G/Y59C)
HLA-DR DRB1*0401 (DR4) = HLA-DR DRB1*0401 (DR4) (Homo sapiens, UniProt P01903+P01911, A100K/A169T/F76Y/I96L/K127E/L162R/M171V/N62H/P40V/Q125Y/R42H/S133A/S149N/S66Y/V115G/V209L/W38E)
HLA-DR DRB5*0101 (DR51) = HLA-DR DRB5*0101 (DR51) (Homo sapiens, UniProt P01903+Q30154)
HLA-DR DRB1*0701 (DR7) = HLA-DR DRB1*0701 (DR7) (Homo sapiens, UniProt P01903+P01911, A100R/A102G/A103Q/D57E/D86V/E43K/F76Y/K127E/L162R/M171V/P40G/Q125H/Q99D/R33Q/R42Y/R54Q/S133A/S66F/T210M/V115G/Y107V/Y59L/Y89S)

Chain of HLA-DR DRB1*1302 (DR13) (P01903 26-254 limits assumed, other chains not shown): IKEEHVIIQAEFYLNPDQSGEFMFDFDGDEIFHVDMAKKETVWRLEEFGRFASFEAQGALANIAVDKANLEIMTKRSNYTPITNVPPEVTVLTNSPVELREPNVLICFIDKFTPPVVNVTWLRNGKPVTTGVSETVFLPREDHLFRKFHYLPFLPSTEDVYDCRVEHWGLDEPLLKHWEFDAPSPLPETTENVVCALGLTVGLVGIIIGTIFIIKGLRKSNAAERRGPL

ENPVVHFFKIHVTPA
IC50 (HLA-DR DRB1*1501 (DR15); read-out: DRBI *1501): 0.0025 µM

ESTGMTPEKVPVSEVM
IC50 (HLA-DR DRB4*0101 (DR53); read-out: DRB4 *0101): > 64.4 µM | IC50 (HLA-DR DRB1*1302 (DR13)): > 17.5 µM

PATYGIIVPVLTSLF
IC50 (HLA-DR DRB1*0101 (DR1); DRB1 *0101): 0.00103 µM | IC50 (HLA-DR DRB1*0401 (DR4); DRB1 *0401): 0.015 µM | IC50 (HLA-DR DRB1*1501 (DR15); DRBI *1501): 2.56 µM | IC50 (HLA-DR DRB5*0101 (DR51); DRB5 *0101): 0.052 µM

SAVPVYIYFNTWTTCQSIAF
IC50 (HLA-DR DRB1*1501 (DR15); read-out: DRBI *1501): 0.092 µM | IC50 (HLA-DR DRB5*0101 (DR51); read-out: DRB5 *0101): 20 µM

CC[C@H](C)[C@H](N)C(=O)NCC(=O)N[C@@H](Cc1c[nH]cn1)C(=O)N[C@@H](CC(C)C)C(=O)N[C@@H](Cc1ccc(O)cc1)C(=O)N[C@H](C(=O)N[C@@H](Cc1ccccc1)C(=O)N[C@@H](C)C(=O)N[C@H](C(=O)N[C@@H](CS)C(=O)N[C@@H](CC(C)C)C(=O)NCC(=O)N[C@@H](CC(C)C)C(=O)N[C@@H](CO)C(=O)N[C@@H](Cc1ccc(O)cc1)C(=O)N[C@@H](CC(=O)O)C(=O)NCC(=O)N[C@@H](CC(C)C)C(=O)O)[C@@H](C)O)[C@@H](C)CC
IC50 (HLA-DR DRB1*0401 (DR4); DRB1 *0401): > 0.816 µM

FLGQQQPFPPQ
IC50 (HLA-DR DRB4*0101 (DR53); DRB4 *0101): 0.031 µM

PQPFRPQQPYPK
IC50 (HLA-DR DRB4*0101 (DR53); DRB4 *0101): 0.022 µM

SAFLESQSMNKIGDD
IC50 (HLA-DR DRB1*0101 (DR1); DRB1 *0101): 0.549 µM | IC50 (HLA-DR DRB4*0101 (DR53); DRB4 *0101): 0.302 µM | IC50 (HLA-DR DRB1*0701 (DR7); DRB1 *0701): 0.523 µM | IC50 (HLA-DR DRB1*1501 (DR15); DRBI *1501): 18.7 µM | IC50 (HLA-DR DRB5*0101 (DR51); DRB5 *0101): 0.243 µM

C[C@H](N)C(=O)N[C@@H](C)C(=O)N[C@@H](C)C(=O)N[C@@H](C)C(=O)N[C@@H](C)C(=O)N[C@@H](C)C(=O)N[C@@H](C)C(=O)N[C@@H](C)C(=O)N[C@@H](C)C(=O)N[C@@H](C)C(=O)N[C@@H](C)C(=O)N[C@@H](CC(N)=O)C(=O)N[C@@H](C)C(=O)O
IC50 (HLA-DR DRB1*0101 (DR1); DRB1 *0101): ≥ 50 µM | IC50 (HLA-DR DRB1*0401 (DR4); DRB1 *0401): 1 µM

PKYGKQIDLKGAT
IC50 (HLA-DR DRB1*0101 (DR1); DRB1 *0101): ≥ 50 µM

PKYFKQRLLKFAT
IC50 (HLA-DR DRB1*0401 (DR4); read-out: DRB1 *0401): 0.4 µM

CC[C@H](C)[C@H](NC(=O)[C@@H](NC(=O)[C@@H]1CCCN1C(=O)[C@H](Cc1ccccc1)NC(=O)[C@H](Cc1ccccc1)NC(=O)[C@H](Cc1ccc(O)cc1)NC(=O)[C@H](CCC(N)=O)NC(=O)[C@H](Cc1c[nH]c2ccccc12)NC(=O)[C@H](CC(N)=O)NC(=O)CNC(=O)[C@@H](N)C(C)C)C(C)C)C(=O)N[C@@H](Cc1ccccc1)C(=O)N[C@@H](CO)C(=O)N[C@@H](CCCCN)C(=O)N[C@@H](C)C(=O)O
IC50 (HLA-DR DRB1*0101 (DR1); DRB1 *0101): 0.037 µM | IC50 (HLA-DR DRB1*0701 (DR7); DRB1 *0701): 0.1 µM | IC50 (HLA-DR DRB1*0401 (DR4); DRB1 *0401): 0.0041 µM

PQPFRPQKPYPQ
IC50 (HLA-DR DRB4*0101 (DR53); DRB4 *0101): 0.022 µM

YFNNFTVSFWLRVPK
IC50 (HLA-DR DRB1*0101 (DR1)): ≥ 50 µM

FLYGALLLAEGFYTTGAVRQ
IC50 (HLA-DR DRB1*1501 (DR15); DRBI *1501): 0.045 µM | IC50 (HLA-DR DRB5*0101 (DR51); DRB5 *0101): 0.256 µM

CC(C)C[C@H](NC(=O)[C@H](CCCCN)NC(=O)[C@H](C)NC(=O)[C@@H](NC(=O)[C@H](CCCCN)NC(=O)[C@H](CCCNC(=N)N)NC(=O)[C@H](CO)NC(=O)[C@H](CC(C)C)NC(=O)[C@H](C)NC(=O)[C@H](C)NC(=O)[C@H](CCC(N)=O)NC(=O)[C@H](Cc1ccccc1)NC(=O)[C@H](CCC(=O)O)NC(=O)[C@H](CO)NC(=O)[C@@H](N)CCC(=O)O)C(C)C)C(=O)O
IC50 (HLA-DR DRB1*0401 (DR4); DRB1 *0401): 0.579 µM

QKQVQMMIMTKFMGV
IC50 (HLA-DR DRB1*0101 (DR1); read-out: DRB1 *0101): 0.121 µM | IC50 (HLA-DR DRB1*0701 (DR7); read-out: DRB1 *0701): 3.62 µM

AFAAAKTAA
IC50 (HLA-DR DRB1*0401 (DR4); DRB1 *0401): 0.571 µM

AAEAAAATAKAAA
IC50 (HLA-DR DRB1*0101 (DR1); DRB1 *0101): 2.5 µM

QKQLLTNHLINTPKI
IC50 (HLA-DR DRB4*0101 (DR53); read-out: DRB4 *0101): 0.904 µM

AFLRQAAAAAFAAY
IC50 (HLA-DR DRB1*0101 (DR1); DRB1 *0101): 2.5 µM | IC50 (HLA-DR DRB1*0401 (DR4); DRB1 *0401): 1 µM

RNGYRALMDKSLHVGTQCALTRR
IC50 (HLA-DR DRB1*0401 (DR4); DRB1 *0401): 0.512 µM

AAYAAAATAKAAA
IC50 (HLA-DR DRB1*0101 (DR1); read-out: DRB1 *0101): 0.0039 µM | IC50 (HLA-DR DRB1*0401 (DR4); read-out: DRB1 *0401): 0.00054 µM

AAANAAAAAAAAA
IC50 (HLA-DR DRB1*0101 (DR1)): ≥ 50 µM

KQPFRPQQPYPQ
IC50 (HLA-DR DRB4*0101 (DR53); DRB4 *0101): 0.056 µM
